Source: patent publication US12358910B2, “Heteroaromatic compounds as Vanin inhibitors” (Boehringer Ingelheim International GmbH, priority 2018, dated 2025)

Assays:
[1] = target: T1, FLAG-tagged Vanin-1 (AA 22-493, T26I) (Homo sapiens, UniProt O95497, T26I); experiment: Vanin-1 enzymatic assay (pantothenic acid formation, RapidFire mass spectrometry); format: biochemical; conditions: 0.1 nM FLAG-tagged Vanin-1, 3 μM D-pantethine, room temperature; geometric mean in case of multiple measurements; read-out: VNN-1 IC50
T1 construct: FLAG-tagged Vanin-1 (AA 22-493, T26I, produced internally); FLAG; made in house
T1 sequence (O95497 22-493 T26I): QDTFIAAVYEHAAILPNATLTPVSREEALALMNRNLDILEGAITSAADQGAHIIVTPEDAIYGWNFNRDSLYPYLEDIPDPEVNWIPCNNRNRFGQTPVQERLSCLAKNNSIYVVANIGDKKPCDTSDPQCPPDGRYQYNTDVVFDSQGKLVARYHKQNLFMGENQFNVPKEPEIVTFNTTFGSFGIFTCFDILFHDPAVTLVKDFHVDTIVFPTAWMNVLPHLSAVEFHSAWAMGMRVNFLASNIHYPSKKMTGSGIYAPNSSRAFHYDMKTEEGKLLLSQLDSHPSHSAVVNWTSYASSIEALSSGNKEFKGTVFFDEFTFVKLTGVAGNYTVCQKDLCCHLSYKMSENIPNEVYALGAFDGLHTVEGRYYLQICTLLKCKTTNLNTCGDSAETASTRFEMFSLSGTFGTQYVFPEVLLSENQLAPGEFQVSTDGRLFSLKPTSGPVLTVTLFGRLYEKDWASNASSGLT
Description: Description of Biological Properties Vanin-1 Enzymatic Assay:
The test compounds are dissolved in 100% DMSO at a concentration of 10 mM and in a first step diluted in DMSO to a concentration of 5 mM, followed by serial dilution steps in 100% DMSO. Dilution factor and number of dilution steps may vary according to needs. Typically 8 different concentrations by 1:5 dilutions are prepared, a further intermediate dilutions of the substances is carried out with assay buffer resulting in 1% final DMSO concentration in the assay.
0.1 nM of FLAG-tagged Vanin-1 (AA 22-493, T26I, produced internally) and test compounds are incubated at room temperature for 20 minutes in assay buffer (1 mM DTT, 0.0025% Brij-35, 50 mM HEPES, pH7.5). D-Pantethine (Sigma, Cat #P2125-5G) in assay buffer is added (final concentration 3 μM) and incubated for additional 30 minutes at room temperature. Total assay volume typically is 40 μl but might be adjusted according to needs. Reaction is stopped by adding equal volume of stop solution as the reaction mixture to reach 100 nM HD-pantothenic acid (as an internal standard) and 1% TFA. Assay plates are centrifuged for 2 minutes and the formation of pantothenic acid is detected by RapidFire Mass Spectrometry (mobile phase A: 0.1% formic acid and 0.01% trifluoroacetic acid in water; mobile phase B: 47.5% acetonitrile, 47.5% methanol, 0.1% formic acid and 0.01% trifluoroacetic acid in water) using a C18, 12 μL cartridge (Agilent Cat #G9205A).
The values given in Table I result from measurements of one or more samples. In case of multiple measurements the geometric mean values are given.

Pantetheinase (vanin) = experiment: Human Whole Blood assay (vanin activity by pantothenic acid formation); format: cell-based; conditions: pantethine substrate, 5 min reaction at room temperature, geometric mean in case of multiple measurements, read-out: HWB IC50
Description: Human Whole Blood assay: Pantetheinase (vanin) converts panteheine into pantothenic acid and cysteamine. Accordingly, in the described protocol vanin activity is quantified by formation of pantothenic acid after pantetheine supplementation via pantethine. The assay is applicable to identify vanin inhibitors. Compound stocks are dissolved in DMSO at 10 mM. Further dilutions are performed in RPMI 1640 medium (Gibco, #A-10491-01) and final concentrations in the assay are 0.032 nM-500 nM.
Human blood is drawn into a blood bag (1% heparin, 50 I.E./mL). Blood is aliquoted into cavities of 96-deep-well plates at 290 μL and mixed with 10 μL compound solution or vehicle (30 sec at 1400 rpm on a shaker). Equilibration follows at room temperature, 250 rpm and for 30 min. The assay is started by adding 10 μL of substrate solution (2 μM pantethine in 1 mM DTT, 0.0025% Brij-35, 50 mM HEPES, pH7.5) to each well, except for some blank wells which receive […] substrate buffer (1 mM DTT, 0.0025% Brij-35, 50 mM HEPES, pH7.5) only. Samples are thoroughly shaken (30 sec, 1400 rpm) and reaction is allowed to take place at room temperature, 250 rpm and for 5 min. The reaction is stopped by addition of a vanin tool inhibitor in excess (BI-1 total conc. 10 μM). Centrifugation of the plate follows at 4° C., 665 G for 10 min. Then the blood plasma samples (100 μL) are transferred into another 96-deep-well plate and proteins are precipitated (5 min on ice) by adding 100 μL of ice cold precipitation solution (1 μM labelled pantothenic acid (di-β-alanine-13C6,15N2 calcium salt, Sigma, #705837) in acetonitrile).
Afterwards the plate is centrifuged (4° C., 3220 G, 10 min) and supernatants (50 μL) are collected into another 96-deep-well plate and mixed (10 sec, 1400 rpm) with 150 μL ice cold formic acid (0.1%, Carl Roth GmbH+Co.KG, #CP03.1). The formation of pantothenic acid is detected by RapidFire Mass Spectrometry. A TripleQuad 6500+(ABSciex, Germany) is equipped with an LC-1290 system, a RapidFire autosampler (Agilent, Germany) and a C18 cartridge Type C 12 μL (Agilent Cat #G9526-80000). Mobile phase A is consisting of 0.09% formic acid and 0.01% trifluoroacetic acid in water and mobile phase B of 0.09% formic acid and 0.01% trifluoroacetic acid in acetonitrile/methanol/water=47.5/47.5/5.

SMILES	IC50 [1]	IC50 (Pantetheinase (vanin))
CC(=O)N(C)[C@H]1CCN(C(=O)c2ccc(NCc3cc4ccccc4s3)nc2)C1 [Example 2.6]	2.05 nM	–
CC(=O)N(C)[C@H]1CCN(C(=O)c2ccc(NCc3ccc4nc(N)[nH]c4c3)nc2)C1 [Example 5.18]	0.69 nM	–
CC(=O)N(C)[C@H]1CCN(C(=O)c2ccc(NCc3csc4ccc(Cl)cc34)nc2)C1 [Example 2.3]	0.21 nM	–
CC(=O)N(C)[C@H]1CCN(C(=O)c2ccc(NCc3n[nH]c4c3CCCC4)nc2)C1 [Example 5.28]	2.65 nM	–
CC(=O)N(C)[C@H]1CCN(C(=O)c2ccc(NCc3ccc4onc(N)c4c3)nc2)C1 [Example 5.34]	9.43 nM	–
CC(=O)N(C)[C@H]1CCN(C(=O)c2ccc(NCc3c(Cl)nc4sccn34)nc2)C1 [Example 5.4]	0.12 nM	1.59 nM
O=C(c1ccc(NCc2csc3ccccc23)nc1)N1CC[C@H](N2CCOC2=O)C1 [Example 8.1, 3-[(3S)-1-(6-{[(1-Benzothiophen-3-yl)methyl]amino}pyridine-3-carbonyl)pyrrolidin-3-yl]-13-oxazolidin-2-one]	0.2 nM	–
CN(C(=O)C1(C)CCC1)[C@H]1CCN(C(=O)c2ccc(NCc3cnc4ccccn34)nc2)C1 [Example 1.14]	0.18 nM	2.59 nM
CC(=O)N(C)[C@H]1CCN(C(=O)c2ccc(NCc3ccc4[nH]ccc4c3)nc2)C1 [Example 5.17]	0.64 nM	–
CC(=O)N(C)[C@H]1CCN(C(=O)c2ccc(NCc3noc4c3CCCC4)nc2)C1 [Example 5.21]	0.79 nM	3.4 nM
CN(C(=O)C1CC1)[C@H]1CCN(C(=O)c2ccc(NCc3cnc4ccccn34)nc2)C1 [Example 1.16]	0.2 nM	2.78 nM
CC(=O)N(C)[C@H]1CCN(C(=O)c2ccc(NCc3ccc4nc[nH]c4c3)nc2)C1 [Example 5.7]	0.14 nM	4.49 nM
O=C(c1ccc(NCc2cnc3ccccn23)nc1)N1CC[C@H](N2CCCC2=O)C1 [Example 1.15]	0.19 nM	4.82 nM
CC1(C#N)CCN(C(=O)c2ccc(NCc3cnc4ccccn34)nc2)C1 (stereo not shown) [Example 1.18]	0.41 nM	3.67 nM
C[C@H](Nc1ccc(C(=O)N2CC[C@H](N(C)C(=O)C3CC(F)(F)C3)C2)cn1)c1cnc2[nH]ccc2c1 [Example 1.6]	0.12 nM	6.38 nM
CC(=O)N(C)[C@H]1CCN(C(=O)c2ccc(NCc3cc(Br)cc4[nH]ncc34)nc2)C1 [Example 5.5]	0.13 nM	–
CC(=O)N(C)[C@H]1CCN(C(=O)c2ccc(NCc3cc(C)cc4[nH]ncc34)nc2)C1 [Example 6.1, N-Methyl-N-[(3S)-1-(6-{[(6-methyl-1H-indazol-4-yl)methyl]amino}pyridine-3-carbonyl)pyrrolidin-3-yl]acetamide]	0.14 nM	–
CC1(C#N)CCN(C(=O)c2ccc(NCc3csc4ccccc34)nc2)C1 (stereo not shown) [Example 9.2]	1.14 nM	–
CC(=O)N(C)[C@H]1CCN(C(=O)c2ccc(NCc3cc4ccccc4[nH]3)nc2)C1 [Example 5.33]	9.33 nM	–
O=C(c1ccc(NCc2csc3ccccc23)nc1)N1CC[C@H](N2CCCC2=O)C1 [Example 8.2]	0.21 nM	–
CN(C(=O)C1CCC1)[C@H]1CCN(C(=O)c2ccc(NCc3csc4ccccc34)nc2)C1 [Example 9.1, N-[(3S)-1-(6-{[(1-Benzothiophen-3-yl)methyl]amino}pyridine-3-carbonyl)pyrrolidin-3-yl]-N-methylcyclobutanecarboxamide]	0.26 nM	–
C[C@H](Nc1ccc(C(=O)N2CC[C@H](N(C)C(=O)C3(C)CCC3)C2)cn1)c1cnc2[nH]ccc2c1 [Example 1.8]	0.14 nM	–
C[C@H](Nc1ccc(C(=O)N2CC[C@H](N(C)C(=O)C3(C)CCC3)C2)cn1)c1cnc2[nH]ccc2c1 [Example 1.11]	0.2 nM	–
CC(=O)N(C)[C@H]1CCN(C(=O)c2ccc(NCc3ccc4ncccc4c3)nc2)C1 [Example 5.26]	1.62 nM	–

The remaining lines, values ahead:

IC50 [1]	IC50 (Pantetheinase (vanin))	SMILES
0.07 nM	1.68 nM	CC(=O)N(C)[C@H]1CCN(C(=O)c2ccc(N[C@@H](C)c3cccc4c3cnn4C)nc2)C1 [Example 5.2]
0.09 nM	1.94 nM	C[C@H](Nc1ccc(C(=O)N2CC[C@H](N(C)C(=O)C3CC3)C2)cn1)c1cnc2[nH]ccc2c1 [Example 1.2]
0.21 nM	–	CC(=O)N(C)[C@H]1CCN(C(=O)c2ccc(NCc3cnc4ccccc4c3)nc2)C1 [Example 5.11]
0.18 nM	1.41 nM	CC(=O)N(C)[C@H]1CCN(C(=O)c2ccc(NC(C)c3cccc4[nH]ccc34)nc2)C1 (stereo partly shown) [Example 5.10]
0.13 nM	2.1 nM	CC(=O)N(C)[C@H]1CCN(C(=O)c2ccc(NCc3cccc4[nH]ccc34)nc2)C1 [Example 5.6]
0.6 nM	7.52 nM	CC(=O)N(C)[C@H]1CCN(C(=O)c2ccc(N[C@@H](C)c3nc4cc(Cl)ccc4[nH]3)nc2)C1 [Example 5.15]
2.25 nM	–	CC(=O)N(C)[C@H]1CCN(C(=O)c2ccc(N[C@H](C)c3cccc4nn(C)cc34)nc2)C1 [Example 5.27]
0.16 nM	1.71 nM	CC(=O)N(C)[C@H]1CCN(C(=O)c2ccc(N[C@@H](C)c3ccc4[nH]ncc4c3)nc2)C1 [Example 5.8]
0.76 nM	–	CC(=O)N(C)[C@H]1CCN(C(=O)c2ccc(N[C@@H](C)c3nc4cc(Cl)c(F)cc4[nH]3)nc2)C1 [Example 5.20]
1.43 nM	–	CC(=O)N(C)[C@H]1CCN(C(=O)c2ccc(N[C@H](C)c3cccc4c3cnn4C)nc2)C1 [Example 5.25]
0.67 nM	–	CC(=O)N(C)[C@H]1CCN(C(=O)c2ccc(NCc3cccc4c3ccn4C)nc2)C1 [Example 2.5]
0.24 nM	–	CC(=O)N(C)[C@H]1CCN(C(=O)c2ccc(N[C@@H](C)c3ccc4c(cnn4C)c3)nc2)C1 [Example 5.37]
3.02 nM	–	CC(=O)N(C)[C@H]1CCN(C(=O)c2ccc(NCc3cccc4cccnc34)nc2)C1 [Example 5.30]
9.06 nM	–	CC(=O)N(C)[C@H]1CCN(C(=O)c2ccc(N[C@H](C)c3ccc4c(cnn4C)c3)nc2)C1 [Example 5.32]
2.74 nM	–	CC(=O)N(C)[C@H]1CCN(C(=O)c2ccc(NCc3cnn4cccnc34)nc2)C1 [Example 5.29]
4.62 nM	–	CC(=O)N(C)[C@H]1CCN(C(=O)c2ccc(NCc3nc4ccccc4s3)nc2)C1 [Example 5.31]
0.14 nM	–	CC(=O)N(C)[C@H]1CCN(C(=O)c2ccc(N[C@@H](C)c3cccc4ccccc34)nc2)C1 [Example 2.2]
